In ChEMBL document CHEMBL6109156, “Discovery of Dual PD-L1/HDAC3 Inhibitors for Tumor Immunotherapy” (J Med Chem, 2025):
Activity calls are given as the source filed them. The calls are words filed in the database; no cut-off is given here.

Key:
[1] = Toxicity in C57BL/6J mouse implanted with mouse B16-F10 cells assessed as heart damage at 20 to 40 mg/kg, ip administered once daily for 9 days by H and E staining based analysis; type: organism-based; conditions: in vivo, 216 h, dose 20-40 mg/kg, time 9 day
[2] = Toxicity in C57BL/6J mouse implanted with mouse B16-F10 cells assessed as spleen damage at 20 to 40 mg/kg, ip administered once daily for 9 days by H and E staining based analysis; type: organism-based; conditions: in vivo, 216 h, dose 20-40 mg/kg, time 9 day
[3] = Toxicity in C57BL/6J mouse implanted with mouse B16-F10 cells assessed as lung damage at 20 to 40 mg/kg, ip administered once daily for 9 days by H and E staining based analysis; type: organism-based; conditions: in vivo, 216 h, dose 20-40 mg/kg, time 9 day
[4] = molecular target: Programmed cell death protein 1/Programmed cell death 1 ligand 1 (Homo sapiens) (UniProt Q15116+Q9NZQ7); test: (§1) Inhibition of PD-1/PD-L1 (unknown origin) interaction assessed as inhibition rate at 1 uM by HTRF assay relative to control; type: protein-complex assay
[5] = molecular target: Programmed cell death protein 1/Programmed cell death 1 ligand 1 (Homo sapiens, UniProt Q9NZQ7); test: as §1; type: protein-complex assay
Histone deacetylase 3 [6] = molecular target: T1, Histone deacetylase 3 (Homo sapiens, UniProt O15379); test: Inhibition of human recombinant HDAC3 using Ac-Leu-Gly-Lys (Ac)-AMC as substrate at 0.1 uM preincubated for 10 mins followed by substrate addition and measured after 45 mins by TECAN microtiter plate reader analysis relative to control; conditions: time 55.0 min
Histone deacetylase 3 [7] = molecular target: T1, Histone deacetylase 3; test: Inhibition of human recombinant HDAC3 using Ac-Leu-Gly-Lys (Ac)-AMC as substrate preincubated for 10 mins followed by substrate addition and measured after 45 mins by TECAN microtiter plate reader analysis
Histone deacetylase 8 = molecular target: T2, Histone deacetylase 8 (Homo sapiens, UniProt Q9BY41); test: Inhibition of human recombinant HDAC8 using Ac-Leu-Gly-Lys (Tfa)-AMC as substrate preincubated for 10 mins followed by substrate addition and measured after 45 mins by TECAN microtiter plate reader analysis
T2 sequence (Q9BY41 whole entry): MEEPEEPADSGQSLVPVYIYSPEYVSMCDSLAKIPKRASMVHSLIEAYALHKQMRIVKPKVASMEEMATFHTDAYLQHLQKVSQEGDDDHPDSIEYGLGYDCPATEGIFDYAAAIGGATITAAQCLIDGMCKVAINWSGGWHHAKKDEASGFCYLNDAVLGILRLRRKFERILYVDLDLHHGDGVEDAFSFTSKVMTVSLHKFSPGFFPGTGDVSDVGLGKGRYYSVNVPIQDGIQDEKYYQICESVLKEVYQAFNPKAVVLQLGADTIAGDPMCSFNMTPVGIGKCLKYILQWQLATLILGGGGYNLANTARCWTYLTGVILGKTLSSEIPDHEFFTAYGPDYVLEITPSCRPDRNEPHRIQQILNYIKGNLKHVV

A-375 = test: Antiproliferative activity against human A-375 cells assessed as cell growth inhibition incubated for 48 hrs by MTT assay; type: functional, cell-based; conditions: A-375, 48 h
HepG2 = test: Antiproliferative activity against human HepG2 cells assessed as cell growth inhibition incubated for 48 hrs by MTT assay; type: functional, cell-based; conditions: HepG2, 48 h
B16-F10 [8] = test: Induction of apoptosis in mouse B16-F10 cells assessed as early apoptotic cells at 4 uM incubated for 48 hrs by Annexin V-FITC/PI staining based flow cytometry analysis (reference value: 0.45 %); type: functional
B16-F10 [9] = test: Induction of apoptosis in mouse B16-F10 cells assessed as early apoptotic cells at 10 uM incubated for 48 hrs by Annexin V-FITC/PI staining based flow cytometry analysis (reference value: 0.45 %); type: functional
B16-F10 [10] = test: Induction of apoptosis in mouse B16-F10 cells assessed as late apoptotic cells at 1 uM incubated for 48 hrs by Annexin V-FITC/PI staining based flow cytometry analysis (reference value: 5.02 %); type: functional
B16-F10 [11] = test: Induction of apoptosis in mouse B16-F10 cells assessed as late apoptotic cells at 4 uM incubated for 48 hrs by Annexin V-FITC/PI staining based flow cytometry analysis (reference value: 5.02 %); type: functional
B16-F10 [12] = test: Induction of apoptosis in mouse B16-F10 cells assessed as late apoptotic cells at 10 uM incubated for 48 hrs by Annexin V-FITC/PI staining based flow cytometry analysis (reference value: 5.02 %); type: functional
B16-F10 [13] = test: Induction of apoptosis in mouse B16-F10 cells assessed as necrotic cells at 4 uM incubated for 48 hrs by Annexin V-FITC/PI staining based flow cytometry analysis (reference value: 2.24%); type: functional
B16-F10 [14] = test: Induction of apoptosis in mouse B16-F10 cells assessed as necrotic cells at 8 uM incubated for 48 hrs by Annexin V-FITC/PI staining based flow cytometry analysis (reference value: 2.24%); type: functional
B16-F10 [15] = test: Induction of apoptosis in mouse B16-F10 cells assessed as necrotic cells at 10 uM incubated for 48 hrs by Annexin V-FITC/PI staining based flow cytometry analysis (reference value: 2.24%); type: functional
B16-F10 [16] = test: Induction of cell cycle arrest in mouse B16-F10 cells assessed as accumulation of cells at G2/M phase at 1 uM incubated for 48 hrs by PI staining based flow cytometry analysis (reference value: 5.87%); type: functional
B16-F10 [17] = test: Induction of cell cycle arrest in mouse B16-F10 cells assessed as accumulation of cells at S phase at 1 uM incubated for 48 hrs by PI staining based flow cytometry analysis (reference value: 24.04%); type: functional
B16-F10 [18] = test: Induction of cell cycle arrest in mouse B16-F10 cells assessed as accumulation of cells at G0/G1 phase at 2 uM incubated for 48 hrs by PI staining based flow cytometry analysis (reference value: 70.09%); type: functional
B16-F10 [19] = test: Induction of cell cycle arrest in mouse B16-F10 cells assessed as accumulation of cells at G2/M phase at 2 uM incubated for 48 hrs by PI staining based flow cytometry analysis (reference value: 5.87%); type: functional
B16-F10 [20] = test: Induction of cell cycle arrest in mouse B16-F10 cells assessed as accumulation of cells at G2/M phase at 4 uM incubated for 48 hrs by PI staining based flow cytometry analysis (reference value: 5.87%); type: functional
B16-F10 [21] = test: Induction of cell cycle arrest in mouse B16-F10 cells assessed as accumulation of cells at S phase at 4 uM incubated for 48 hrs by PI staining based flow cytometry analysis (reference value: 24.04%); type: functional
Jurkat = test: Antiproliferative activity against human Jurkat T cells assessed as cell viability incubated for 48 hrs by MTT assay; type: functional, cell-based
[22] = Toxicity in C57BL/6J mouse implanted with mouse B16-F10 cells assessed as kidney damage at 20 to 40 mg/kg, ip administered once daily for 9 days by H and E staining based analysis; type: organism-based; conditions: in vivo, 216 h, dose 20-40 mg/kg, time 9 day
B16-F10 [23] = test: Immunomodulatory activity in mouse B16-F10 cells implanted in C57BL/6J mouse assessed as percentage of CD3 positive CD8 positive cells in tumor at 20 mg/kg, ip administered once daily for 9 days by flow cytometric analysis (reference value: 0.44 %); type: functional; conditions: time 9 day
B16-F10 [24] = test: Immunomodulatory activity in mouse B16-F10 cells implanted in C57BL/6J mouse assessed as percentage of CD3 positive CD4 positive cells in tumor at 40 mg/kg, ip administered once daily for 9 days by flow cytometric analysis (reference value: 0.20 %); type: functional; conditions: time 9 day

T1 sequence (O15379 whole entry): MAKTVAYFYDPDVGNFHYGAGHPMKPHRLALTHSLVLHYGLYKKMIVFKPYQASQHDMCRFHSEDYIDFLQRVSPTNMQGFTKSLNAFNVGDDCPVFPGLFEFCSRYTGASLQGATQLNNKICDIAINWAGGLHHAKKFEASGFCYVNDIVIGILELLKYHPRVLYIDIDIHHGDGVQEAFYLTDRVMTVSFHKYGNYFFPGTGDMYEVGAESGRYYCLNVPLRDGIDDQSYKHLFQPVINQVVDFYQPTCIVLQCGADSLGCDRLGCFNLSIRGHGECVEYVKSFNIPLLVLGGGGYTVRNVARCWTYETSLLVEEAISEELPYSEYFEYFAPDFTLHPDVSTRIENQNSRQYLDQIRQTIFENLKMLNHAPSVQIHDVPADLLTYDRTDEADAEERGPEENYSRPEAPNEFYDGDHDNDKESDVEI
Programmed cell death protein 1/Programmed cell death 1 ligand 1, sequence (Q15116 whole entry): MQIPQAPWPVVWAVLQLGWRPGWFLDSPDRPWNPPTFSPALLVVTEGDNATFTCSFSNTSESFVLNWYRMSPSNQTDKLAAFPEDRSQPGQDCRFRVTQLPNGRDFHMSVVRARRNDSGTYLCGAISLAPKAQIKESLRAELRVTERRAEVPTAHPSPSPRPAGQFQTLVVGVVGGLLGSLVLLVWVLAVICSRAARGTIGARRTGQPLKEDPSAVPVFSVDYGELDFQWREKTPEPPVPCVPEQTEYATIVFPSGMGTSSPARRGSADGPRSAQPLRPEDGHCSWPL
Programmed cell death protein 1/Programmed cell death 1 ligand 1, sequence (Q9NZQ7 whole entry): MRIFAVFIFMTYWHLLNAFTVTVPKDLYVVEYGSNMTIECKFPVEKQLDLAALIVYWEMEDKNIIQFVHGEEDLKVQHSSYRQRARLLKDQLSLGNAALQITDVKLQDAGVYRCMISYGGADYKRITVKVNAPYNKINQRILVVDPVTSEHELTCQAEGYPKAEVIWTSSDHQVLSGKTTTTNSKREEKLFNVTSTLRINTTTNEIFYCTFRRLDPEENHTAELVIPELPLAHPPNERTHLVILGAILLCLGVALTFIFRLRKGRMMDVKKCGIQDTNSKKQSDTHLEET

Question: With `CCCNNC(=O)CCCNCc1ccc(-c2cccc(-c3ccccc3)c2C)nc1OC` as the compound, how does the Activity [1] read?
Answer: The Activity was “Non-toxic”.

Question: What about the Activity [2] of the same compound?
Answer: The Activity was “Non-toxic”.

Question: What about the Activity [3] of the same compound?
Answer: The Activity was “Non-toxic”.

Question: And the inhibition [4]?
Answer: Its inhibition is 94.3%.

Question: What about the IC50 [5] of the same compound?
Answer: Its IC50 is 0.0894 µM.

Question: What about the inhibition (Histone deacetylase 3 [6]) of the same compound?
Answer: The inhibition was 42%.

Question: And the IC50 (Histone deacetylase 3 [7])?
Answer: Its IC50 is 0.107 µM.

Question: What about the IC50 (Histone deacetylase 8) of the same compound?
Answer: Its IC50 is over 10 µM.

Question: And the IC50 (A-375)?
Answer: Its IC50 is 3.46 µM.

Question: And the IC50 (HepG2)?
Answer: Its IC50 is 4 µM.

Question: What about the Activity (B16-F10 [8]) of the same compound?
Answer: The Activity was 17.1%.

Question: And the Activity (B16-F10 [9])?
Answer: The Activity was 52.9%.

Question: And the Activity (B16-F10 [10])?
Answer: Its Activity is 9.24%.

Question: What about the Activity (B16-F10 [11]) of the same compound?
Answer: The Activity was 16.4%.

Question: What about the Activity (B16-F10 [12]) of the same compound?
Answer: The Activity was 14.8%.

Question: And the Activity (B16-F10 [13])?
Answer: Its Activity is 4.08%.

Question: What about the Activity (B16-F10 [14]) of the same compound?
Answer: Its Activity is 2.21%.

Question: And the Activity (B16-F10 [15])?
Answer: Its Activity is 1.04%.

Question: And the Activity (B16-F10 [16])?
Answer: Its Activity is 4.75%.

Question: What about the Activity (B16-F10 [17]) of the same compound?
Answer: Its Activity is 21.79%.

Question: What about the Activity (B16-F10 [18]) of the same compound?
Answer: The Activity was 87.25%.

Question: And the Activity (B16-F10 [19])?
Answer: The Activity was 4.96%.

Question: What about the Activity (B16-F10 [20]) of the same compound?
Answer: The Activity was 3.65%.

Question: What about the Activity (B16-F10 [21]) of the same compound?
Answer: The Activity was 4.69%.

Question: What about the Activity (Jurkat) of the same compound?
Answer: Its Activity is “Active”.

Question: What about the Activity [22] of the same compound?
Answer: The Activity was “Non-toxic”.

Question: And the Activity (B16-F10 [23])?
Answer: Its Activity is 4.31%.

Question: What about the Activity (B16-F10 [24]) of the same compound?
Answer: The Activity was 2.8%.
